Reference: PubChem BioAssay AID1963845 (Molecular Pharmacology Branch, DTP, NCI, 2024)

Tested on: 429239-143-T-J1-PDC complex spheroid viability
Experiment: Anticancer human tumor 429239-143-T-J1-PDC patient-derived small cell lung carcinoma cell line growth inhibition [POLQ]
Details: for IC50: curve of first compound; for viability, T/C: stronger effect = lower value
Method in brief: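 Patient-derived tumour cells were co-cultured with HUVEC and mesenchymal stem cells as multicellular spheroids at 37 °C. They were treated with POLQ inhibitors (novobiocin, ART-558, RP6685) alone or combined with other agents. Top concentrations were at or near clinical Cmax (otherwise 10 microM; SN-38 at 1 microM), decreasing in half-log steps.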

[1] = second compound 0.0316 µM, first compound 0.0316 µM
[2] = second compound 0.0316 µM, first compound 0.1 µM
[3] = second compound 0.0316 µM, first compound 0.316 µM
[4] = second compound 0.0316 µM, first compound 1 µM
[5] = second compound 0.0316 µM, first compound 3.16 µM
[6] = second compound 0.0316 µM, first compound 10 µM
[7] = second compound 0.1 µM, first compound 0.0316 µM
[8] = second compound 0.1 µM, first compound 0.1 µM
[9] = second compound 0.1 µM, first compound 0.316 µM
[10] = second compound 0.1 µM, first compound 1 µM
[11] = second compound 0.1 µM, first compound 3.16 µM
[12] = second compound 0.1 µM, first compound 10 µM
[13] = second compound 0.316 µM, first compound 0.0316 µM
[14] = second compound 0.316 µM, first compound 0.1 µM
[15] = second compound 0.316 µM, first compound 0.316 µM
[16] = second compound 0.316 µM, first compound 1 µM
[17] = second compound 0.316 µM, first compound 3.16 µM
[18] = second compound 0.316 µM, first compound 10 µM
[19] = second compound 1 µM, first compound 0.0316 µM
[20] = second compound 1 µM, first compound 0.1 µM
[21] = second compound 1 µM, first compound 0.316 µM
[22] = second compound 1 µM, first compound 1 µM
[23] = second compound 1 µM, first compound 3.16 µM
[24] = second compound 1 µM, first compound 10 µM
[25] = second compound 3.16 µM, first compound 0.0316 µM
[26] = second compound 3.16 µM, first compound 0.1 µM
[27] = second compound 3.16 µM, first compound 0.316 µM
[28] = second compound 3.16 µM, first compound 1 µM
[29] = second compound 3.16 µM, first compound 3.16 µM
[30] = second compound 3.16 µM, first compound 10 µM
[31] = second compound 10 µM, first compound 0.0316 µM
[32] = second compound 10 µM, first compound 0.1 µM
[33] = second compound 10 µM, first compound 0.316 µM
[34] = second compound 10 µM, first compound 1 µM
[35] = second compound 10 µM, first compound 3.16 µM
[36] = second compound 10 µM, first compound 10 µM
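Also: luminescence signal used as surrogate measure of viable cells; spheroids exposed to compounds for seven days before readout.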
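For viability, T/C in this document: 100% = DMSO vehicle control viability as luminescence relative to vehicle.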

C#Cc1c(F)ccc2cc(O)cc(-c3ncc4c(N5CC6CCC(C5)N6)nc(OCC56CCCN5CC(F)C6)nc4c3F)c12 (stereo unspecified) + Nc1ccc(C#CCN(C(=O)Cc2ncc(C(F)(F)F)cc2C(F)(F)F)c2ccc(F)cc2)nn1
IC50 (second compound 0.0316 µM): > 10 µM
IC50 (second compound 0.1 µM): > 10 µM
IC50 (second compound 0.316 µM): > 10 µM
IC50 (second compound 1 µM): > 10 µM
IC50 (second compound 3.16 µM): > 10 µM
IC50 (second compound 10 µM): > 10 µM
viability, T/C [1]: 98.6%
viability, T/C [2]: 106%
viability, T/C [3]: 103%
viability, T/C [4]: 109%
viability, T/C [5]: 102%
viability, T/C [6]: 89.3%
viability, T/C [7]: 103%
viability, T/C [8]: 107%
viability, T/C [9]: 102%
viability, T/C [10]: 98.7%
viability, T/C [11]: 101%
viability, T/C [12]: 95%
viability, T/C [13]: 106%
viability, T/C [14]: 93%
viability, T/C [15]: 102%
viability, T/C [16]: 100%
viability, T/C [17]: 99.9%
viability, T/C [18]: 96.9%
viability, T/C [19]: 102%
viability, T/C [20]: 99.8%
viability, T/C [21]: 105%
viability, T/C [22]: 105%
viability, T/C [23]: 99.7%
viability, T/C [24]: 93.1%
viability, T/C [25]: 99.4%
viability, T/C [26]: 98%
viability, T/C [27]: 106%
viability, T/C [28]: 93.8%
viability, T/C [29]: 103%
viability, T/C [30]: 96.8%
viability, T/C [31]: 93.9%
viability, T/C [32]: 106%
viability, T/C [33]: 97.4%
viability, T/C [34]: 102%
viability, T/C [35]: 101%
viability, T/C [36]: 90.5%

CCc1cc2c(N3CCc4c(cc(Cn5ccnc5)cc4-c4cn(C)nc4C(F)(F)F)C3=O)cc(C)nc2c(OC)n1 + Nc1ccc(C#CCN(C(=O)Cc2ncc(C(F)(F)F)cc2C(F)(F)F)c2ccc(F)cc2)nn1
IC50 (second compound 0.0316 µM): 7.23 µM
IC50 (second compound 0.1 µM): 8.6 µM
IC50 (second compound 0.316 µM): 8.7 µM
IC50 (second compound 1 µM): 7.14 µM
IC50 (second compound 3.16 µM): 7.93 µM
IC50 (second compound 10 µM): 4.85 µM
viability, T/C [1]: 104%
viability, T/C [2]: 94.1%
viability, T/C [3]: 91.3%
viability, T/C [4]: 77.4%
viability, T/C [5]: 72.1%
viability, T/C [6]: 41.3%
viability, T/C [7]: 98.7%
viability, T/C [8]: 88.1%
viability, T/C [9]: 85.8%
viability, T/C [10]: 82.1%
viability, T/C [11]: 74.1%
viability, T/C [12]: 45.4%
viability, T/C [13]: 103%
viability, T/C [14]: 91.4%
viability, T/C [15]: 98.7%
viability, T/C [16]: 81.2%
viability, T/C [17]: 63.4%
viability, T/C [18]: 48.1%
viability, T/C [19]: 108%
viability, T/C [20]: 86.4%
viability, T/C [21]: 91.7%
viability, T/C [22]: 80.4%
viability, T/C [23]: 76%
viability, T/C [24]: 40%
viability, T/C [25]: 101%
viability, T/C [26]: 110%
viability, T/C [27]: 88.7%
viability, T/C [28]: 71.3%
viability, T/C [29]: 58.7%
viability, T/C [30]: 46.7%
viability, T/C [31]: 104%
viability, T/C [32]: 86.2%
viability, T/C [33]: 84.2%
viability, T/C [34]: 79.3%
viability, T/C [35]: 64.6%
viability, T/C [36]: 29.9%

O=C(c1cc(Cc2n[nH]c(=O)c3ccccc23)ccc1F)N1CCN(C(=O)C2CC2)CC1 + Nc1ccc(C#CCN(C(=O)Cc2ncc(C(F)(F)F)cc2C(F)(F)F)c2ccc(F)cc2)nn1
IC50 (second compound 0.0316 µM): 4.18 µM
IC50 (second compound 0.1 µM): 3.96 µM
IC50 (second compound 0.316 µM): 4.09 µM
IC50 (second compound 1 µM): 4.13 µM
IC50 (second compound 3.16 µM): 4.25 µM
IC50 (second compound 10 µM): 3.6 µM
viability, T/C [1]: 101%
viability, T/C [2]: 98.4%
viability, T/C [3]: 92.4%
viability, T/C [4]: 84.9%
viability, T/C [5]: 64.8%
viability, T/C [6]: 7.77%
viability, T/C [7]: 96.6%
viability, T/C [8]: 104%
viability, T/C [9]: 90%
viability, T/C [10]: 95.9%
viability, T/C [11]: 60.8%
viability, T/C [12]: 6.66%
viability, T/C [13]: 104%
viability, T/C [14]: 99.1%
viability, T/C [15]: 91.3%
viability, T/C [16]: 81.2%
viability, T/C [17]: 65.8%
viability, T/C [18]: 9.12%
viability, T/C [19]: 105%
viability, T/C [20]: 94.4%
viability, T/C [21]: 88.5%
viability, T/C [22]: 84.9%
viability, T/C [23]: 64.8%
viability, T/C [24]: 8.72%
viability, T/C [25]: 97.6%
viability, T/C [26]: 93.4%
viability, T/C [27]: 90.8%
viability, T/C [28]: 95.2%
viability, T/C [29]: 64.3%
viability, T/C [30]: 8.47%
viability, T/C [31]: 102%
viability, T/C [32]: 92%
viability, T/C [33]: 93.5%
viability, T/C [34]: 88.9%
viability, T/C [35]: 55.4%
viability, T/C [36]: 6.04%
